From patent US7709482B2, “Polycyclic heteroaryl substituted triazoles useful as Axl inhibitors” (Rigel Pharmaceuticals, Inc., priority 2006, dated 2010) come the findings set out here.

Read-outs that look alike come from different tables or passages of the source.

This assay addresses T1, Axl (Homo sapiens, UniProt P30530).
T1 construct: endogenous in cells; host or cells: HeLa cells
T1 sequence (P30530 26-894): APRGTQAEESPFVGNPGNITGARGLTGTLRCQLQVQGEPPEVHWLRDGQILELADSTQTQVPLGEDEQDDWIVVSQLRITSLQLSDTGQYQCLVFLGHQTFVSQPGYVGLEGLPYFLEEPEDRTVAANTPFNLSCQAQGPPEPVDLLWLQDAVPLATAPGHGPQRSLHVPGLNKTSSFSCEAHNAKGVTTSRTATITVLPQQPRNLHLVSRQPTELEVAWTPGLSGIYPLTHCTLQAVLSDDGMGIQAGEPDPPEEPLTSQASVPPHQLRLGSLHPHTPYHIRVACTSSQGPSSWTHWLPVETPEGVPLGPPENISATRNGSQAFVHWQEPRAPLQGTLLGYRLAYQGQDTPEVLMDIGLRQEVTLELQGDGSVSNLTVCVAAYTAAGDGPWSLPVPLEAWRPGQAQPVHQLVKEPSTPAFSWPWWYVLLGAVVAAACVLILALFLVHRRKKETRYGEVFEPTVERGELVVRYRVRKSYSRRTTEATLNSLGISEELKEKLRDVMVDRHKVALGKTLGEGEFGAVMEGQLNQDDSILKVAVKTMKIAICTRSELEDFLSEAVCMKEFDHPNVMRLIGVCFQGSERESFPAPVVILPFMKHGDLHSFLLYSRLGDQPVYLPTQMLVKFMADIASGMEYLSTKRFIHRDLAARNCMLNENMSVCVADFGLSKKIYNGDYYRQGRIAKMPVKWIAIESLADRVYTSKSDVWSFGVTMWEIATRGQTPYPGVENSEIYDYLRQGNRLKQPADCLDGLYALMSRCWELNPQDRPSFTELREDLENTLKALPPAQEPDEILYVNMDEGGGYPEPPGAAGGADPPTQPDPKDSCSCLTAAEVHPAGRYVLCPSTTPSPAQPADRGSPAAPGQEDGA
The assay is described as follows: Phospho-Akt In-Cell Western Assay (inhibition of Axl activity after Axl-antibody cross-linking). The assay is classed as cell-based. The gist of the method:
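Phospho-Akt was detected in formaldehyde-fixed cells by in-cell immunostaining with HRP chemiluminescence. Before fixation, HeLa cells kept 24 h in low-serum medium containing 500 ng/mL Axl/Fc received compound for 1 h at 37 °C, followed by 5-min Axl activation through antibody clustering.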

Where [1] appears, read: Hela cells, phospho-Akt chemiluminescence normalized to relative cell number, compounds of formula (Ib), Table 2, read-out: IC50.
Where [2] appears, read: Hela cells, phospho-Akt chemiluminescence normalized to relative cell number, compounds of formula (Ia), Table 1, read-out: IC50.
Where [3] appears, read: inhibition of Axl activity, Table 1, compounds of formula (Ia), read-out: IC50.

One may read the IC50 as the point on the concentration scale where inhibition reaches its midpoint.

`CC(C)N1CCN(Cc2ccc(Nc3nc(N)nn3-c3cc4c(nn3)-c3ccccc3CCC4)cc2)CC1` [Compound 167, 1-(6,7-dihydro-5H-benzo[6,7]cyclohepta[1,2-c]pyridazin-3-yl)-N^5-(4-((4-isopropylpiperazinyl)methyl)phenyl)-1H-1,2,4-triazole-3,5-diamine]: under setting [1], the IC50 is 1000 to 10000 nM.
Take `Nc1nc(Nc2ccc3c(c2)OCCCO3)nn1-c1cc2c(nn1)-c1ccccc1CCC2` [Compound 100, 1-(6,7-dihydro-5H-benzo[6,7]cyclohepta[1,2-c]pyridazin-3-yl)-N^3-(3,4-dihydro-2H-benzo[b][1,4]dioxepin-7-yl)-1H-1,2,4-triazole-3,5-diamine]: under setting [2], the IC50 fell in the range of 1000 to 10000 nM.
In the case of `COC(=O)[C@@H]1CCCN1C1CCc2ccc(Nc3nc(N)n(-c4cc5c(nn4)-c4ccccc4CCC5)n3)cc2CC1` (stereo partly drawn) [Compound 194, 1-(6,7-dihydro-5H-benzo[6,7]cyclohepta[1,2-c]pyridazin-3-yl)-N^3-((7-(2-(S)-methyloxycarbonyl)pyrrolidin-1-yl)-6,7,8,9-tetrahydro-5H-benzo[7]annulene-2-yl)-1H-1,2,4-triazole-3,5-diamine], under setting [3], the IC50 was less than 1000 nM.
As to `CN1CCN(C(=O)C2CCc3ncc(Nc4nc(N)n(-c5cc6c(nn5)-c5ccccc5CCC6)n4)cc3C2)CC1` (stereo not shown) [Compound 31, 1-(6,7-dihydro-5H-benzo[6,7]cyclohepta[1,2-c]pyridazin-3-yl)-N^3-(6-(4-methylpiperazin-1-yl)carbonyl-5,6,7,8-tetrahydroquinolin-3-yl)-1H-1,2,4-triazole-3,5-diamine], the IC50 under setting [2] was less than 1000 nM.
Regarding `Nc1nc(Nc2ccc3c(c2)CCC(NCC2CC2)CC3)nn1-c1cc2c(nn1)-c1ccccc1CCC2` (stereo not shown) [Compound 230, 1-(6,7-dihydro-5H-benzo[6,7]cyclohepta[1,2-c]pyridazin-3-yl)-N^3-(7-(cyclopropylmethyl)amino-6,7,8,9-tetrahydro-5H-benzo[7]annulene-2-yl)-1H-1,2,4-triazole-3,5-diamine], the IC50 under setting [3] is less than 1000 nM.
Turning to `Nc1nc(Nc2ccc(N3CCC(N4CCCC4)CC3)nc2)nn1-c1cc2c(nn1)-c1ccccc1CCC2` [Compound 29, 1-(6,7-dihydro-5H-benzo[6,7]cyclohepta[1,2-c]pyridazin-3-yl)-N^3-(6-(4-(pyrrolidin-1-yl)piperidin-1-yl)pyridine-3-yl)-1H-1,2,4-triazole-3,5-diamine], the IC50 under setting [2] is 1000 to 10000 nM.
For the compound `CN1CCN(C2CCN(c3ccc(Nc4nc(N)n(-c5cc6c(nn5)-c5ccccc5CCC6)n4)cc3F)CC2)CC1` [Compound 179, 1-(6,7-dihydro-5H-benzo[6,7]cyclohepta[1,2-c]pyridazin-3-yl)-N^3-(3-fluoro-4-(4-(4-methylpiperazin-1-yl)piperidin-1-yl)phenyl)-1H-1,2,4-triazole-3,5-diamine], the IC50 under setting [3] is less than 1000 nM.
As to `Nc1nc(Nc2ccc(N3CCN([C@H]4CC5CCC4C5)CC3)cc2)nn1-c1ncc2c(n1)-c1ccccc1CCC2` (stereo partly drawn) [Compound 46, 1-(6,7-dihydro-5H-benzo[6,7]cyclohepta[1,2-d]pyrimidin-2-yl)-N^3-(4-(4-(2S)-bicyclo[2.2.1]heptan-2-yl)-piperazinylphenyl)-1H-1,2,4-triazole-3,5-diamine], the IC50 under setting [2] is less than 1000 nM.
`Nc1nc(Nc2ccc(N3C4CCC3CC(N3CCCC3)C4)c(F)c2)nn1-c1cc2c(nn1)-c1ccccc1CCC2` (stereo not shown) [Compound 76, 1-(6,7-dihydro-5H-benzo[6,7]cyclohepta[1,2-c]pyridazin-3-yl)-N^3-(3-fluoro-4-(3-(pyrrolidin-1-yl)-8-azabicyclo[3.2.1]oct-8-yl)phenyl)-1H-1,2,4-triazole-3,5-diamine] came in with an IC50 of less than 1000 nM.
For the compound `Nc1nc(Nc2ccc(CC3C(=O)Nc4ccc(F)cc43)cc2)n(-c2cc3c(nn2)-c2ccccc2CCC3)n1` (stereo not shown) [Compound 163, 1-(6,7-dihydro-5H-benzo[6,7]cyclohepta[1,2-c]pyridazin-3-yl)-N^5-(4-((5-fluoroindolin-2-on-3-yl)methyl)phenyl)-1H-1,2,4-triazole-3,5-diamine], under setting [1], the IC50 was greater than 20000 nM.
Regarding `CCN(CC)C1CCc2ccc(Nc3nc(N)n(-c4cc5c(nn4)-c4ccccc4CCC5)n3)cc2CC1` (stereo not shown) [Compound 185, 1-(6,7-dihydro-5H-benzo[6,7]cyclohepta[1,2-c]pyridazin-3-yl)-N^3-(7-diethylamino-6,7,8,9-tetrahydro-5H-benzo[7]annulene-2-yl)-1H-1,2,4-triazole-3,5-diamine], under setting [3], the IC50 is less than 1000 nM.
On to `Nc1nc(Nc2ccc(N3CCCC(N4CCCC4)C3)c(F)c2)nn1-c1cc2c(nn1)-c1ccccc1CCC2` (stereo not shown) [Compound 68, 1-(6,7-dihydro-5H-benzo[6,7]cyclohepta[1,2-c]pyridazin-3-yl)-N^3-(3-fluoro-4-(3-pyrrolidin-1-yl-piperidin-1-yl)phenyl)-1H-1,2,4-triazole-3,5-diamine], for which the IC50 under setting [2] is less than 1000 nM.
As for `Nc1nc(Nc2ccc(OCCN3CCCC3)cc2)nn1-c1cc2c(nn1)-c1ccccc1CCC2` [Compound 1, 1-(6,7-dihydro-5H-benzo[6,7]cyclohepta[1,2-c]pyridazin-3-yl)-N^3-(4-(2-(pyrrolidin-1-yl)ethoxy)phenyl)-1H-1,2,4-triazole-3,5-diamine], the IC50 under setting [2] was less than 1000 nM.
The same measure, in the same setting: as for `Nc1nc(Nc2ccc(N3CCN(C4CC5CCC4C5)CC3)nc2)nn1-c1cc2c(nn1)-c1ccccc1CCC2` (stereo not shown) [Compound 8, 1-(6,7-dihydro-5H-benzo[6,7]cyclohepta[1,2-c]pyridazin-3-yl)-N^3-(6-(4-(bicyclo[2.2.1]heptan-2-yl)piperazin-1-yl)pyridin-3-yl)-1H-1,2,4-triazole-3,5-diamine], the figure is 1000 to 10000 nM.
Take `CN1CCN(c2ccc(Nc3nc(N)n(-c4cc5c(nn4)-c4ccccc4N(C)CC5)n3)cc2)CC1` [Compound 41, 1-(7-methyl-6,7-dihydro-5H-benzo[2,3]azepino[4,5-c]pyridazin-3-yl)-N^3-(4-(N-methylpiperazin-1-yl)phenyl)-1H-1,2,4-triazole-3,5-diamine]: the IC50 under setting [2] was 1000 to 10000 nM.
Regarding `CC(C)N1CCN(CC=Cc2ccc(Nc3nc(N)n(-c4cc5c(nn4)-c4ccccc4CCC5)n3)cc2)CC1` [Compound 205, 1-(6,7-dihydro-5H-benzo[6,7]cyclohepta[1,2-c]pyridazin-3-yl)-N^3-(4-(4-isopropylpiperazin-1-ylprop-1-enyl)phenyl)-1H-1,2,4-triazole-3,5-diamine], under setting [3], the IC50 is less than 1000 nM.
For the compound `Nc1nc(Nc2ccc(N3CCN(CC4CC4)CC3)c(F)c2)nn1-c1cc2c(nn1)-c1ccccc1CCC2` [Compound 214, 1-(6,7-dihydro-5H-benzo[6,7]cyclohepta[1,2-c]pyridazin-3-yl)-N^3-(3-fluoro-4-(4-cyclopropylmethylpiperazin-1-yl)phenyl)-1H-1,2,4-triazole-3,5-diamine], the IC50 under setting [3] is less than 1000 nM.
For the compound `Nc1nc(Nc2ccc(N3CC[C@@H](CN4CCCC4)C3)c(F)c2)nn1-c1cc2c(nn1)-c1ccccc1CCC2` [Compound 115, 1-(6,7-dihydro-5H-benzo[6,7]cyclohepta[1,2-c]pyridazin-3-yl)-N^3-(3-fluoro-4-((S)-3-(pyrrolidin-1-ylmethyl)pyrrolidinyl)phenyl)-1H-1,2,4-triazole-3,5-diamine], under setting [2], the IC50 fell in the range of 1000 to 10000 nM.
Regarding `Nc1nc(Nc2ccc(-c3ccc4c(c3)OCO4)nc2)nn1-c1cc2c(nn1)-c1ccccc1CCC2` [Compound 97, 1-(6,7-dihydro-5H-benzo[6,7]cyclohepta[1,2-c]pyridazin-3-yl)-N^3-(6-(benzo[d][1,3]dioxole-6-yl)pyridine-3-yl)-1H-1,2,4-triazole-3,5-diamine], the 50% inhibitory concentration (IC50) under setting [2] is greater than 20000 nM.
Consider `CN1CCN(c2ccc(Nc3nc(N)n(-c4cc5c(nn4)-c4ccccc4CCC5)n3)cn2)CC1` [Compound 27, 1-(6,7-dihydro-5H-benzo[6,7]cyclohepta[1,2-c]pyridazin-3-yl)-N^3-(6-(4-methylpiperazin-1-yl)pyridin-3-yl)-1H-1,2,4-triazole-3,5-diamine], for which, under setting [2], the IC50 is less than 1000 nM.
In the case of `Nc1nc(Nc2ccc(N3CC[C@H]4CCCC[C@@H]4C3)c(F)c2)nn1-c1cc2c(nn1)-c1ccccc1CCC2` [Compound 127, 1-(6,7-dihydro-5H-benzo[6,7]cyclohepta[1,2-c]pyridazin-3-yl)-N^3-(3-fluoro-4-((4aR,8aS)-decahydroisoquinolin-2-yl)phenyl)-1H-1,2,4-triazole-3,5-diamine], the IC50 under setting [2] lay within 1000 to 10000 nM.
With `Nc1nc(Nc2ccc(CN3CCN(C4CCCC4)CC3)cc2)nn1-c1cc2c(nn1)-c1ccccc1CCC2` [Compound 104, 1-(6,7-dihydro-5H-benzo[6,7]cyclohepta[1,2-c]pyridazin-3-yl)-N^3-(4-((4-cyclopentylpiperazinyl)-methyl)phenyl)-1H-1,2,4-triazole-3,5-diamine], the IC50 under setting [2] was less than 1000 nM.
